From patent US20240368120A1 (Terns Pharmaceuticals, Inc., priority 2023, published 2024) come the findings set out here.

For data set [1], the target named is T1, human GLP-1R receptor (Homo sapiens, UniProt P43220).
T1 construct: expressed in transfected cells
The experiment in a line: GLP-1R low expression cell assay (cAMP TR-FRET, CHO-K1_hGLP-1Rlow_clone10 cells). The data set is classed as cell-based. Conditions: for EC50: cAMP TR-FRET, 30 min at 25° C.; for Emax: maximum activation relative to control GLP-1 peptide agonist. Put shortly:
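Readout is cAMP TR-FRET after 30 min compound stimulation at 25 °C of a low-GLP-1R-expressing CHO-K1 clone (1,000 cells/well), with 10-point 3-fold serial dilutions. Percent activation versus a control GLP-1 peptide, from duplicates, was Hill-fitted to give EC50.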

A short description of data set [2]: Rat pharmacokinetics, oral dosing. The data set is classed as in vivo, Sprague-Dawley rats. Conditions: male, Sprague-Dawley, oral dosing at 3 mg/kg, plasma; for half-life: read-out: Rat T1/2. Here is the method:
Intravenous dosing: Compounds were formulated at 1.0 mg/mL in a solution comprising 5% polyethylene glycol 400 and 95% (12% (w/v) sulfobutyl-β-cyclodextrin in water) (v/v). Formulated compounds were sterile filtered through a 0.22 micron filter before dosing. Compounds were administered to male, 7-11-week-old Sprague-Dawley rats by jugular vein cannula infusion over 30 minutes at a dose of 1 mg/kg. Oral dosing: Compounds were formulated at 1.0 mg/mL in a solution comprising 5% polyethylene glycol 400 and 95% (12% (w/v) sulfobutyl-β-cyclodextrin in water) (v/v). Formulated compounds were administered to male, 7-11 week old Sprague-Dawley rats by oral gavage at a dose of 10 mg/kg or 3 mg/kg.
Sample collection: Blood collections of about 0.2 mL per time point were performed from jugular vein or other suitable site of each animal, into pre-chilled commercial EDTA-K2 tubes and placed on wet ice until centrifugation. Blood samples were processed for plasma by centrifugation at approximately 4° C., 3,200 g for 10 min. Plasma was collected and transferred into pre-labeled 96 well plate or polypropylene tubes, quick frozen over dry ice and kept at −60° C. or lower until
Data analysis: Plasma concentration versus time data was plotted in graph and analyzed by non-compartmental approaches using the Phoenix WinNonlin 6.3 software program. Related PK parameters were calculated according to dosing route, e.g., CL, Vdss and C0 for intravenous administration, Cmax, Tmax or % F for extravascular administration, and T1/2, AUC(0-t), AUC(0-inf), MRT(0-t), MRT(0-inf) for all routes.

Each structure is given as a SMILES string.

T1 sequence (P43220 24-463): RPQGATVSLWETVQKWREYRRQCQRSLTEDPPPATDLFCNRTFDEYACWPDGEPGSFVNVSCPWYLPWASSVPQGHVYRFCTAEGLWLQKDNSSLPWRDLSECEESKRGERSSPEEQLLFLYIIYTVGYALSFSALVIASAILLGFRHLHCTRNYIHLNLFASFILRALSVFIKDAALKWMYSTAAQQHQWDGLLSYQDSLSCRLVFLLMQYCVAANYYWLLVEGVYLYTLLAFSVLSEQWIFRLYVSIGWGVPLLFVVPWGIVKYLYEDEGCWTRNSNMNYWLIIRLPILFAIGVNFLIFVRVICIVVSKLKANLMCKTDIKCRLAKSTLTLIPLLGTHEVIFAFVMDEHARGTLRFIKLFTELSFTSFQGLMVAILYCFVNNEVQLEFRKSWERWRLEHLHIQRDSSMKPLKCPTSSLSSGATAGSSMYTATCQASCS

Take `Cn1c(CN2CCC(c3cccc4c3OC(c3ccc(Cl)cc3F)C=C4)CC2)nc2c(OC(F)F)cc(C(=O)O)cc21` (single isomer, unassigned) [Compound 176]: the EC50 in data set [1] was in the range of 100 to 1000 nM. Moreover, in data set [2], the AUC lay in the range of 500 to 2500 ng·h/mL, the Cmax was less than 500 ng/mL, the half-life was less than 90 min and the bioavailability lay in the range of 25 to 50%.

In the case of `C[C@]1(c2ccc(Cl)cn2)Oc2cccc(C3CCN(Cc4nc5c(OC6CC6)cc(C(=O)O)cc5n4Cc4cncs4)CC3)c2O1` [Compound 6, (S)-2-((4-(2-(5-chloropyridin-2-yl)-2-methylbenzo[d][1,3]dioxol-4-yl)piperidin-1-yl)methyl)-4-cyclopropoxy-1-(thiazol-5-ylmethyl)-1H-benzo[d]imidazole-6-carboxylic acid], in data set [1], the EC50 was less than 10 nM and the Emax was greater than 85%. In data set [2], the exposure (AUC) was less than 500 ng·h/mL, the Cmax was less than 500 ng/mL, the half-life lay in the range of 90 to 150 min and the bioavailability was 25 to 50%.

In the case of `C[C@@]1(c2ccc(Cl)cn2)Oc2cccc(C3CCN(Cc4nc5c(OC6CC6)cc(C(=O)O)cc5n4Cc4cncs4)CC3)c2O1` [Compound 7, (R)-2-((4-(2-(5-chloropyridin-2-yl)-2-methylbenzo[d][1,3]dioxol-4-yl)piperidin-1-yl)methyl)-4-cyclopropoxy-1-(thiazol-5-ylmethyl)-1H-benzo[d]imidazole-6-carboxylic acid], in data set [1], the EC50 lay within 10 to 100 nM and the Emax is greater than 85%. For the same molecule, in data set [2], the AUC is less than 500 ng·h/mL, the Cmax was less than 500 ng/mL, the half-life was no less than 150 min and the bioavailability was less than 25%.

In data set [1], `CC(F)(F)c1cc(C(=O)O)cc2c1nc(CN1CCC(c3cccc4c3O[C@](C)(c3ccc(Cl)cn3)O4)CC1)n2C[C@@H]1CCO1` [Compound 71, 2-((4-((R)-2-(5-Chloropyridin-2-yl)-2-methylbenzo[d][1,3]dioxol-4-yl)piperidin-1-yl)methyl)-4-(1,1-difluoroethyl)-1-(((S)-oxetan-2-yl)methyl)-1H-benzo[d]imidazole-6-carboxylic acid] had an EC50 of 10 to 100 nM and an Emax greater than 85%. In data set [2], the AUC was in the range of 500 to 2500 ng·h/mL, the Cmax was 500 to 1000 ng/mL, the half-life was less than 90 min and the bioavailability is 25 to 50%.

Consider `C[C@]1(c2ccc(Cl)cn2)Oc2cccc(C3CCN(Cc4nc5c(OC6COC6)cc(C(=O)O)cc5n4C[C@@H]4CCO4)CC3)c2O1` [Compound 72, 2-((4-((S)-2-(5-Chloropyridin-2-yl)-2-methylbenzo[d][1,3]dioxol-4-yl)piperidin-1-yl)methyl)-1-(((S)-oxetan-2-yl)methyl)-4-(oxetan-3-yloxy)-1H-benzo[d]imidazole-6-carboxylic acid], for which, in data set [1], the EC50 is less than 10 nM and the Emax is greater than 85%. In data set [2], the AUC was less than 500 ng·h/mL, the Cmax is less than 500 ng/mL, the half-life is less than 90 min and the bioavailability was less than 25%.

For the molecule `CC(C)Oc1cc(C(=O)O)cc2c1nc(CN1CCC(c3cccc(OCc4ccc(C#N)cc4F)n3)CC1)n2Cc1cncs1` [Compound 73, 2-((4-(6-((4-Cyano-2-fluorobenzyl)oxy)pyridin-2-yl)piperidin-1-yl)methyl)-4-isopropoxy-1-(thiazol-5-ylmethyl)-1H-benzo[d]imidazole-6-carboxylic acid], in data set [1], the EC50 was less than 10 nM and the Emax was greater than 85%. Besides, in data set [2], the AUC was less than 500 ng·h/mL, the Cmax was less than 500 ng/mL, the half-life was less than 90 min and the bioavailability is less than 25%.

In data set [1], `C[C@]1(c2ccc(Cl)cn2)Oc2cccc(C3CCN(Cc4nc5c(OCC6COC6)cc(C(=O)O)cc5n4C[C@@H]4CCO4)CC3)c2O1` [Compound 77, 2-((4-((S)-2-(5-chloropyridin-2-yl)-2-methylbenzo[d][1,3]dioxol-4-yl)piperidin-1-yl)methyl)-1-(((S)-oxetan-2-yl)methyl)-4-(oxetan-3-ylmethoxy)-1H-benzo[d]imidazole-6-carboxylic acid] returned an EC50 of less than 10 nM and a maximum response (Emax) greater than 85%. In data set [2], this molecule yielded an AUC of less than 500 ng·h/mL, a Cmax of less than 500 ng/mL and a bioavailability of less than 25%.

In data set [1], `C[C@]1(c2ccc(Cl)cn2)Oc2cccc(C3CCN(Cc4nc5c(OC(F)F)cc(C(=O)O)cc5n4C[C@@H]4CCO4)CC3)c2O1` [Compound 78, 2-((4-((S)-2-(5-Chloropyridin-2-yl)-2-methylbenzo[d][1,3]dioxol-4-yl)piperidin-1-yl)methyl)-4-(difluoromethoxy)-1-(((S)-oxetan-2-yl)methyl)-1H-benzo[d]imidazole-6-carboxylic acid] showed an EC50 of less than 10 nM and an Emax greater than 85%. Besides, in data set [2], the AUC was less than 500 ng·h/mL, the Cmax was less than 500 ng/mL, the half-life is 90 to 150 min and the bioavailability was 25 to 50%.

In data set [1], `COc1cc(C(=O)O)cc2c1nc(N(C)[C@H]1CC[C@H](c3cccc4c3O[C@@](C)(c3ccc(Cl)cn3)O4)CC1)n2C[C@@H]1CCO1` [Compound 80, 2-(((1S,4S)-4-((S)-2-(5-Chloropyridin-2-yl)-2-methylbenzo[d][1,3]dioxol-4-yl)cyclohexyl)(methyl)amino)-4-methoxy-1-(((S)-oxetan-2-yl)methyl)-1H-benzo[d]imidazole-6-carboxylic acid] yielded an EC50 of less than 10 nM and an Emax greater than 85%. Also, in data set [2], the AUC was less than 500 ng·h/mL, the Cmax is less than 500 ng/mL, the half-life is no less than 150 min and the bioavailability was less than 25%.

In data set [1], `C[C@]1(c2ccc(Cl)cn2)Oc2cccc(C3CCN(Cc4nc5c(OCCF)cc(C(=O)O)cc5n4C[C@@H]4CCO4)CC3)c2O1` [Compound 81, 2-((4-((S)-2-(5-Chloropyridin-2-yl)-2-methylbenzo[d][1,3]dioxol-4-yl)piperidin-1-yl)methyl)-4-(2-fluoroethoxy)-1-(((S)-oxetan-2-yl)methyl)-1H-benzo[d]imidazole-6-carboxylic acid] registered an EC50 of less than 10 nM and an Emax greater than 85%. Further, in data set [2], the AUC is less than 500 ng·h/mL, the Cmax is less than 500 ng/mL, the half-life is no less than 150 min and the bioavailability is less than 25%.

In data set [1], `CC(F)(F)c1cc(C(=O)O)cc2c1nc(CN1CCC(c3cccc4c3O[C@@](C)(c3ccc(Cl)cn3)O4)CC1)n2C[C@@H]1CCO1` [Compound 386, 2-((4-((S)-2-(5-Chloropyridin-2-yl)-2-methylbenzo[d][1,3]dioxol-4-yl)piperidin-1-yl)methyl)-4-(1,1-difluoroethyl)-1-(((S)-oxetan-2-yl)methyl)-1H-benzo[d]imidazole-6-carboxylic acid] yielded an EC50 of 10 to 100 nM and an Emax greater than 85%.

For the molecule `COc1cc(C(=O)O)cc2c1nc(CN1CC[C@@H](c3cccc(OCc4ccc(C#N)cc4F)n3)[C@@H]3C[C@@H]31)n2C[C@@H]1CCO1` [Compound 387, 2-(((1S,5R,6S)-5-(6-((4-cyano-2-fluorobenzyl)oxy)pyridin-2-yl)-2-azabicyclo[4.1.0]heptan-2-yl)methyl)-4-methoxy-1-(((S)-oxetan-2-yl)methyl)-1H-benzo[d]imidazole-6-carboxylic acid], in data set [1], the EC50 is less than 10 nM.
